From patent publication US6563025B1, “Nucleotide sequences encoding anthranilate synthase” (Board of Trustees of the University of Illinois, priority 1996, dated 2003)
pKi: −log10 of the molar value. Where “and” joins values, the source holds several entries; their conditions need not be identical. Equal entries are not always repeated. Entries after “also recorded” stand apart in the source; their conditions may differ. Where two headings read alike, the source gives them in different places.

How the values were obtained:
[1] = tested on: A. sinicus seedlings; assay: Direct selection of hairy root lines from A. sinicus seedlings; type: cell-based
Method: Four to seven day old seedlings of A. sinicus with roots removed were then fully immersed in the 1 day cultured bacterial suspension in a petri dish for 10 min, wiped with sterilized filter paper and then placed on partially water immersed filter paper and incubated under 16 h light ([…] m-2 s-1, cool white fluorescent lamps). Three days after co-cultivation, plants were transferred to Murashige and Skoog (Murashige, T., & Skoog, F. Physiol. Plant. 15:473-497, 1962), MS, medium solidified with 3g/l Gellan Gum containing 500 mg/l of carbenicillin disodium and 75 mg/l kanamycin.
Since the A. sinicus hairy root lines initially selected for kanamycin-resistance but which were also transformed with the feedback-insensitive ASA2 cDNA show resistance to growth inhibition by 5MT (FIG. 18), we wanted to determine if direct selection could be done for A. sinicus hairy root line formation on medium containing 5MT (FIGS. 21A and 21B). Transformation of A. sinicus seedlings with DC-AR2 harboring pBIN-ASA2 gave rise to hairy root line formation on medium containing 0, 15, 20, 25, 30 and 40 μM 5MT but inhibition occurred at 50, 75 and 100 μM.

[2] = tested on: E. coli trpE5972; assay: Complementation and inhibition tests in trpE mutant E. coli; type: cell-based; conditions: no Trp
Method: The pQES61K was transformed into a trpE nonsense (trpE 5972) mutant E. coli. The trpE nonsense mutant E. coli (trpE 5972) transformed with an expression vector itself (Vector) and the ASA2 cDNA ligated into the expression vector (ASA2) were plated on the M9 minimal medium containing, isopropyl-thiogalactoside (IPTG, 0.1 mM) and ampicillin (100 μg/ml) and either with Trp (+Trp, FIG. 5A) or without Trp (−Trp, FIG. 5B). The complemented strain grew well on M9 medium without Trp and also with 300 μM 5MT (FIG. 5C) which inhibits the growth of the complemented strain carrying feedback-sensitive plant AS (Bohlmann et al., Plant Physiol., 111: 507-514, 1996).
The chimeric constructs were transformed into trpE mutant E. coli (trpE5972, nonsense mutant) using CaCl2 transformation (Sambrook et al., 1989, supra). Complemented strains were plated on M9 minimal medium containing ampicillin (100 μg/ml) and isopropylthiogalactoside (IPTG, 0.1 mM), but no Trp. For the inhibition test, 300 μM 5MT was added to the minimal medium described previously. FIGS. 16A and 16B were taken two days after streaking.

[3] = tested on: soybean hairy root lines; assay: Quantitative root growth test of soybean hairy root lines with 5MT; type: cell-based; conditions: solid medium, 8 weeks; compared with A. sinicus
Method: The soybean (cv. Williams 82) cotyledons from 4 to 6-day-old-seedlings were harvested and wounded with a scalpel previously-dipped into an overnight culture of the A. rhizogenes strain K599. Cotyledons were inoculated by cutting the adaxial face several times to form a checked wound site and the abaxial side was placed on sterile distilled water partially immersed filter paper and incubated as described above. Three days after inoculation, cotyledons were transferred to medium containing Murashige and Skoog basal minerals and B5 organics (Gamborg, O. L., et al. Expt. Cell. Res. 50: 148-151, 1968) solidified with 3 g/1 Gellan gum (Kelko, Division of Merck) (MXB medium) in 100×25 mm petri dishes. To inhibit the growth of bacteria and to select transformed roots, 500 mg/l of carbenicillin disodium and 200 mg/l kanamycin were added to the MXB medium. After hairy roots developed from wounded cotyledons,. single root tips (2-3 cm) were excised and used to establish bacteria-free root clones by subculture to fresh MXB solid medium grown at 28° C. in the dark. […]
Large numbers of kanamycin resistant root lines were produced from soybean cotyledons transformed with pBIN-ASA2 and a quantitative root growth test was also performed to assess the extent of 5MT resistance of the transformed hairy root lines. […]

[4] = tested on: A. sinicus hairy root lines; assay: Quantitative root growth test of A. sinicus hairy root lines with 5MT; type: cell-based
Method: Hairy roots were weighed to determine fresh weight, and these samples were dried for 12 h at […] before dry weight determination.
Since expression of the feedback-insensitive ASA2 gene should increase resistance to the Trp analog 5MT as shown previously with E. coli (Song et al., 1998), a quantitative root growth test was used to assess the extent of 5MT resistance of the transformed hairy root lines. Transformed roots were grown for 6 weeks with 0, 10, 15, 20, 25, 30, 40, 50, 75 and 100 μM 5MT in both MS liquid and solid medium, respectively (FIGS. 18A to 18C and FIGS. 19A and 19B).

[5] = biological target: altered AS (Arabidopsis thaliana, UniProt P32068, D341N); conditions: 100 μM Trp; cited from earlier work
Sequence of altered AS (P32068 55-595 D341N): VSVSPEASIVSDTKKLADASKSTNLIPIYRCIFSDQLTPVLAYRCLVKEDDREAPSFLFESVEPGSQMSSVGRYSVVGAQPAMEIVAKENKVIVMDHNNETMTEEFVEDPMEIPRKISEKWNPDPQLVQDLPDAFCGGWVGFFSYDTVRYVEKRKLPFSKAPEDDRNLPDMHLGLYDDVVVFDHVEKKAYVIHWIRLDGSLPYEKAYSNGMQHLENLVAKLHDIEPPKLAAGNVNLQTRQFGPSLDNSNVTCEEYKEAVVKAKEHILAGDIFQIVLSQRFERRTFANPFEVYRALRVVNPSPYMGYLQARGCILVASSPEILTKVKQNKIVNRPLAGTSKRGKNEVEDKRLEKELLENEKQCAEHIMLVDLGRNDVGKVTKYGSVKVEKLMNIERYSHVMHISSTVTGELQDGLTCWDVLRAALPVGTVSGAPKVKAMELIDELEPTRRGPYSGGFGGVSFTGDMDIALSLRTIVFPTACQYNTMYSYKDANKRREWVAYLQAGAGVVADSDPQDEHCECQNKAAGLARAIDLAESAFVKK

[6] = tested on: AS; assay: AS activity in extracts of tobacco suspension cultured cells, inhibition by Trp; type: biochemical, N. tabacum; conditions: 100 μM Trp; original 5MT-resistant cell lines
[7] = tested on: tobacco ASA2; assay: Feedback inhibition assay of tobacco ASA2 expressed in E. coli; type: biochemical, N. tabacum; conditions: partially purified ASA2 expressed in E. coli
Method: The tobacco ASA2 gene was expressed in E. coli strain trpE5972, a mutant line containing a nonsense trpE gene, grown to late log phase on Luria Bertani medium with 100 μM Trp. Expression was induced by addition of 100 μM isopropylthiogalactoside. A protease inhibitor, 135 μM phenylmethylsulfonylfluoride (PMSF), was added with further incubation for three hours at 30° C., 150 rpm. The cells were collected by centrifugation and resuspended in 50 mM Tris, 5 mM MgCl2, 100 mM NH4Cl, 2 mM dithiothreitol, 20% glycerol, pH 8.0 plus 100 μM PMSF and disrupted using a French press (2 passes, 20,000 psi). Cell debris was removed by centrifugation and the supernatant treated with Ni-affinity resin. Bound protein was eluted with 100 μM imidazole in pH 6.3 buffer.

[8] = biological target: tobacco ASA2; conditions: ASA2 expressed in E. coli; read-out: apparent Ki for Trp; cited from earlier work
[9] = biological target: anthranilate synthase; assay: AS activity in extracts of A. sinicus hairy root lines, inhibition by Trp; type: biochemical; conditions: control lines; Trp concentration causing 50% inhibition; NH4Cl as second substrate; read-out: apparent Ki for Trp
Method: Extracts were prepared using a Tenbroeck tissue grinder (Kontes Glass Co., Vineland, N.J.), and the ASA1 extraction buffer (2 ml/g tissue) described by Bernasconi and coworkers (Bernasconi, P., et al., Plant Physiol., 106: 353-358, 1994). After removal of cellular debris by centrifugation (10 min at 35,000 × g and 4° C.), one volume of the supernatant was combined with two volumes of room temperature saturated (NH4)2SO4, and then centrifuged as before. The resulting pellet was resuspended in extraction buffer (1 ml/g tissue) and used immediately. When glutamine was used as the second substrate for the AS catalyzed reaction, the resuspended enzyme solution was desalted using Sephadex G25 to remove residual (NH4)2SO4.
AS activity was measured as described in Song et al. (1998, supra) except the assay buffer was that described by Bernasconi et al. (1994, supra) without NH4Cl in the buffer. Either 100 mM NH4Cl or 10 mM glutamine was added to the assay mixture to determine α-subunit activity or AS holoenzyme activity, respectively.

[10] = biological target: T1, Arabidopsis ASA1 (Arabidopsis thaliana, UniProt P32068); assay: Feedback inhibition assay of Arabidopsis ASA1 expressed in E. coli; type: biochemical, A. thaliana; conditions: 100 μM and lower concentrations of Trp; crude E. coli cell extract
T1 construct: made in house; host or cells: E. coli JM109
T1 sequence (P32068 55-595): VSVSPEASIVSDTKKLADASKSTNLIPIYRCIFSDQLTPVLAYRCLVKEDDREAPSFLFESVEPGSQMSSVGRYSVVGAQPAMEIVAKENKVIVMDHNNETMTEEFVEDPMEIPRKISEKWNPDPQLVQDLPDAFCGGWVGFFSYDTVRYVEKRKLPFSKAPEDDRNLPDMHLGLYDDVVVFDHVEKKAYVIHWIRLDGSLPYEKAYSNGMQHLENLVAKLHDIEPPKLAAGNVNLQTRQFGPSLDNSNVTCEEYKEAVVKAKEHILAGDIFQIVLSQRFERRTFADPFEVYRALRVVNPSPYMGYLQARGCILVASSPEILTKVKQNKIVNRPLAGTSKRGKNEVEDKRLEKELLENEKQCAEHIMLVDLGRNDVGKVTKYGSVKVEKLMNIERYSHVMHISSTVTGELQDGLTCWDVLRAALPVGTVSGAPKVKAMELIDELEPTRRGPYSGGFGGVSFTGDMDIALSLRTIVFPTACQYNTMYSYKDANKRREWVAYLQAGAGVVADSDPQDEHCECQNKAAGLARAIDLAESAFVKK
Method: The tobacco ASA2 gene was expressed in E. coli strain trpE5972, a mutant line containing a nonsense trpE gene, grown to late log phase on Luria Bertani medium with 100 μM Trp. Expression was induced by addition of 100 μM isopropylthiogalactoside. A protease inhibitor, 135 μM phenylmethylsulfonylfluoride (PMSF), was added with further incubation for three hours at 30° C., 150 rpm. The cells were collected by centrifugation and resuspended in 50 mM Tris, 5 mM MgCl2, 100 mM NH4Cl, 2 mM dithiothreitol, 20% glycerol, pH 8.0 plus 100 μM PMSF and disrupted using a French press (2 passes, 20,000 psi). Cell debris was removed by centrifugation and the supernatant treated with Ni-affinity resin. Bound protein was eluted with […] imidazole in pH 6.3 buffer. The Arabidopsis ASA1 gene was similarly expressed except that the E. coli strain JM109 was used and enzyme activity in a crude cell extract without Ni-affinity purification was characterized.
Enzyme activity was measured with and without Trp in 50 mM Tris, 5 mM M?gCl2, 1 mM EDTA, 100 mM NH4Cl, 2 mM dithiothreitol, 20% glycerol, pH 7.8 plus 100 μM chorismate. Anthranilate produced in; 30 min at 30° C. was extracted using ethyl acetate and fluorescence measured at excitation 340 and emission 400.

[11] = tested on: AS; conditions: cited from earlier work; for pKi: read-out: apparent Ki for Trp
[12] = seedlings transformed with DC-AR2 harboring pBIN-ASA2
[13] = control hairy root lines, 6 weeks

SMILES: Cc1ccc2[nH]cc(C[C@H](N)C(=O)O)c2c1 [5MT, 5-methyltryptophan]
- 5MT concentration for effective direct selection of 35S-ASA2 transformed roots [1]: 15 to 40 µM
- 5MT concentration at which roots turned brown and died ([1]; control roots, DC-AR2, subculture): ≥ 15 µM
- 5MT concentration at which no hairy root lines were formed ([1]; control, transformed with DC-AR2): ≥ 25 µM
- 5MT concentration allowing hairy root line formation [1, 12]: ≤ 40 µM
- 5MT concentration at which inhibition of hairy root formation occurred [1, 12]: ≥ 50 µM
- Growth on minimal medium with 5MT ([2]; site-directed mutagenized ASA2 alone, 10 μM 5MT): could not grow
- Growth on minimal medium with 5MT ([2]; strain transformed with ASA2 cDNA, 300 μM 5MT): grew well; also recorded: not inhibited
- Growth on minimal medium with 5MT ([2]; strain transformed with site-directed mutant (Ser107, Gln108), 300 μM 5MT): did not grow
- Sensitivity of hairy root lines to 5MT inhibition [3]: more sensitive to 5MT inhibition than those of A. sinicus
- 5MT concentration inhibiting hairy root growth [4, 13]: 10 to 20 µM
- 5MT concentration of almost complete inhibition [4, 13]: ≥ 30 µM
- 5MT concentration at which lines turned brown and died ([4]; control hairy root lines, liquid medium): ≥ 20 µM
- 5MT concentration at which lines grew ([4]; transformed lines A-7, 8, 9, 10 and 20, liquid medium): up to 100 μM
- 5MT concentration at which lines are able to grow ([4]; transformed lines A-7, 8, 9, 10 and 20, maximum concentration tested): up to 100 μM

SMILES: N[C@@H](Cc1c[nH]c2ccccc12)C(=O)O [Trp, tryptophan]
- AS inhibition by Trp [5]: 95%
- enzyme activity of the feedback-insensitive ASA2 [6]: 50%
- AS activity remaining at 100 μM Trp [7]: 50%
- pKi [8]: 4.00
- pKi [9]: 5.70 and 5.52
- Inhibition of Arabidopsis ASA1 gene product by Trp [10]: completely inhibited
- AS activity remaining ([11]; 900 μM Trp, 5MT-selected tobacco cells overexpressing ASA2, also AB15-12-1): 20%
- pKi ([11]; extracts of 5MT-resistant tobacco suspension cultured cells): 3.52
- pKi ([11]; extracts of wild-type tobacco suspension cultured cells): 5.70
